Assay results from ChEMBL document CHEMBL5236583, “Semisynthesis, biological activities, and mechanism studies of Mannich base analogues of magnolol/honokiol as potential α-glucosidase inhibitors” (Bioorg Med Chem, 2022).
Activity calls are given as the source filed them. The calls are words filed in the database; no cut-off is given here.

Assays:
[1] = biological target: Maltase-glucoamylase (Homo sapiens) (UniProt O43451); test: Inhibition of alpha-glucosidase (unknown origin) using pNPG as substrate at 64 uM preincubated with enzyme for 15 mins followed by substrate addition and measured after 10 mins by microplate reader analysis; settings: time 25.0 min
Chain of Maltase-glucoamylase (Homo sapiens) (O43451 whole entry, looked up): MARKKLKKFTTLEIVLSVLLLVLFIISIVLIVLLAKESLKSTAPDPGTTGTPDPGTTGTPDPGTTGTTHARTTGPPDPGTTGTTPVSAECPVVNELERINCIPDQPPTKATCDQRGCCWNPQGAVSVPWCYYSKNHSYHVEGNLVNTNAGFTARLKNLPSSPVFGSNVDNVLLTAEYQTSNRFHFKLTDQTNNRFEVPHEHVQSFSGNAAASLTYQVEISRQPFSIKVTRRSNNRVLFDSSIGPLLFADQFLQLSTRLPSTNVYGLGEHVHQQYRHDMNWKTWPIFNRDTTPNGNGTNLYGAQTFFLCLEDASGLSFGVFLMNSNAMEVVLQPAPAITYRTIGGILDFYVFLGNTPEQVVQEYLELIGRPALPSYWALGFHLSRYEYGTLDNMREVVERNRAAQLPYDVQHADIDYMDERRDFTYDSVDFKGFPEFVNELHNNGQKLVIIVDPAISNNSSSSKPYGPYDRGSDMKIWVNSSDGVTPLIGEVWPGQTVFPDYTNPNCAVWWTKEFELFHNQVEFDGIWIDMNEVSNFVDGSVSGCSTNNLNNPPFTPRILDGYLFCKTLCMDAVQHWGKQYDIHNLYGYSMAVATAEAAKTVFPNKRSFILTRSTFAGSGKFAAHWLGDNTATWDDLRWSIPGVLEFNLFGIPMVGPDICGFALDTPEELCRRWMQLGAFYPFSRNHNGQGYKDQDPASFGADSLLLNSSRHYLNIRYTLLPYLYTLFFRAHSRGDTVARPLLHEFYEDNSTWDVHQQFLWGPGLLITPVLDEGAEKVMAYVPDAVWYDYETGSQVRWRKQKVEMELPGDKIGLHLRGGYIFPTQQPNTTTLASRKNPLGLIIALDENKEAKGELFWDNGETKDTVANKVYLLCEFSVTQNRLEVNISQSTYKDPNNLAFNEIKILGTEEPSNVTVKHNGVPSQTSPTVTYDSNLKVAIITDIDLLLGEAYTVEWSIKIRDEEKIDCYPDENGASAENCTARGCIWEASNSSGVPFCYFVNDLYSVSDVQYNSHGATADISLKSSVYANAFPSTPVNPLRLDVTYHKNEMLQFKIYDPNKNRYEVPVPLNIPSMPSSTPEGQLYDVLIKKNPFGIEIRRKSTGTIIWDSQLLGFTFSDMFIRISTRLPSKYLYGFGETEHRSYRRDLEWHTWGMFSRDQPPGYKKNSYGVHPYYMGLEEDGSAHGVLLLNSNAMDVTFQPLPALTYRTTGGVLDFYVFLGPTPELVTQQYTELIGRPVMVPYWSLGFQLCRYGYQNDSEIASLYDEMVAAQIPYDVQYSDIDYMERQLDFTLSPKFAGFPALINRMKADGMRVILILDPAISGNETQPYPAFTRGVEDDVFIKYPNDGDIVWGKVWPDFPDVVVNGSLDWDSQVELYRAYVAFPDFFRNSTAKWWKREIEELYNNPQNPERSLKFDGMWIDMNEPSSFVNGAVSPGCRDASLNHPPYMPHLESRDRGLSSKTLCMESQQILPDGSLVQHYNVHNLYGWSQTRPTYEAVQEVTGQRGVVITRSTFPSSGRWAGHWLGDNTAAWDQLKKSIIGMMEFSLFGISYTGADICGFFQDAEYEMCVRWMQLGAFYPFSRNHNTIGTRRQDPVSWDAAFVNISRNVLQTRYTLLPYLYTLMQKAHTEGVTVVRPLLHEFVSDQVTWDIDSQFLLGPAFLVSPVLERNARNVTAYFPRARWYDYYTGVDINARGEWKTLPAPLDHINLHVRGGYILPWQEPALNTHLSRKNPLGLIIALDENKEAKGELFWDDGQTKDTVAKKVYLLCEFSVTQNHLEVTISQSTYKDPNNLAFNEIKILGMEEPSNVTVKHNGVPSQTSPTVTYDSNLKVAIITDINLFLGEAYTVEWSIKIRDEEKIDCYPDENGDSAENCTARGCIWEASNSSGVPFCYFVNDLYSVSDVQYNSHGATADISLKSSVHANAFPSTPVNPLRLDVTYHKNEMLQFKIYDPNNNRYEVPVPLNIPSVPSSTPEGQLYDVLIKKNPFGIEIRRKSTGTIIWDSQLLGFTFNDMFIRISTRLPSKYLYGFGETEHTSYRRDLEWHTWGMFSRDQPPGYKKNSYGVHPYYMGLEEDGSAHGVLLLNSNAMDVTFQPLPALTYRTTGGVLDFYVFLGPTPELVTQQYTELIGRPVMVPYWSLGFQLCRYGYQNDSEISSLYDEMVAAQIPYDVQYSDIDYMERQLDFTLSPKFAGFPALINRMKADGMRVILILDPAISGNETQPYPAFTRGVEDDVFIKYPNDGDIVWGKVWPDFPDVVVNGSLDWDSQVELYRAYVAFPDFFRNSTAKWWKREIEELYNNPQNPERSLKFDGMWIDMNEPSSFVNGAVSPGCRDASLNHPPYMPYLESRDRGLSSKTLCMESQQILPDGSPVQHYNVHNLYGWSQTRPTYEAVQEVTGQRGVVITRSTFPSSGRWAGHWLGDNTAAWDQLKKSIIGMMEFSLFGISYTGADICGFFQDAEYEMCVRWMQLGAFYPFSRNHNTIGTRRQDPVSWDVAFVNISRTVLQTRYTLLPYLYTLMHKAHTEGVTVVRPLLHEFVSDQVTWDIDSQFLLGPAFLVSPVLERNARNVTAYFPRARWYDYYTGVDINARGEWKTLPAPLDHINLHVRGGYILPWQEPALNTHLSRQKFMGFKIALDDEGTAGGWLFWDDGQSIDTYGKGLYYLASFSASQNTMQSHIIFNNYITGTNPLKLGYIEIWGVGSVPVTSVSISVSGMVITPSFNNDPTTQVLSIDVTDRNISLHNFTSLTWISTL

[2] = Cytotoxicity against human L02 cells assessed as cell viability at 64 uM by CCK8 assay; assay type: toxicity, cell-based; settings: read-out: Activity
[3] = biological target: Maltase-glucoamylase (Homo sapiens) (UniProt O43451); test: Reversible inhibition of alpha-glucosidase (unknown origin) using pNPG as substrate assessed as reduction in velocity of enzyme-catalyzed reaction
[4] = biological target: Maltase-glucoamylase (Homo sapiens) (UniProt O43451); test: Non-competitive inhibition of alpha-glucosidase (unknown origin) using pNPG as substrate preincubated with enzyme for 15 mins followed by substrate addition and measured for 15 mins by Lineweaver-Burk plot analysis; settings: time 30.0 min
[5] = biological target: Maltase-glucoamylase (Homo sapiens) (UniProt O43451); test: Competitive inhibition of alpha-glucosidase (unknown origin) using pNPG as substrate preincubated with enzyme for 15 mins followed by substrate addition and measured for 15 mins by Lineweaver-Burk plot analysis; settings: time 30.0 min

C=CCc1cc(-c2ccc(O)c(CC=C)c2)c(O)c(C(c2ccc(Cl)cc2)N2CCC(C)CC2)c1 (stereo not drawn)
inhibition [1]: 8.6%

C=CCc1cc(-c2ccc(O)c(CC=C)c2)c(O)c(C(c2ccccc2)N2CCCCC2)c1 (stereo not drawn)
inhibition [1]: 13.6%

C=CCc1cc(CN(C(C)C)C(C)C)c(O)c(-c2cc(CC=C)c(O)c(CN(C(C)C)C(C)C)c2)c1
inhibition [1]: 7.2%

C=CCc1cc(-c2ccc(O)c(CC=C)c2)c(O)c(C(c2ccccc2)N2CCC(C)CC2)c1 (stereo not drawn)
inhibition [1]: 25.8%

C=CCc1cc(-c2ccc(O)c(CC=C)c2)c(O)c(C(c2cc(OC)c(OC)c(OC)c2)N2CCCCC2)c1 (stereo not drawn)
inhibition [1]: 56.4%

C=CCc1cc(-c2ccc(O)c(CC=C)c2)c(O)c(C(c2ccc(OC)cc2)N2CCOCC2)c1 (stereo not drawn)
inhibition [1]: 6.2%

C=CCc1cc(-c2cc(CC=C)c(O)c(C(c3ccc(Cl)cc3)N3CCOCC3)c2)c(O)c(C(c2ccc(Cl)cc2)N2CCOCC2)c1 (stereo not drawn)
viability at 64 µM [2]: > 80% | inhibition [1]: 80.1%

C=CCc1ccc(O)c(-c2cc(CC=C)cc(CN3CCN(C)CC3)c2O)c1
inhibition [1]: 9.4%

C=CCc1cc(CN2CCC(C)CC2)c(O)c(-c2cc(CC=C)c(O)c(CN3CCC(C)CC3)c2)c1
inhibition [1]: 6.5%

C=CCc1ccc(O)c(-c2cc(CC=C)cc(CN(C)C(C)C)c2O)c1
inhibition [1]: 3.4%

C=CCc1cc(-c2ccc(O)c(CC=C)c2)c(O)c(C(c2cc(Cl)cc(Cl)c2)N2CCC(C)CC2)c1 (stereo not drawn)
inhibition [3]: Active | viability at 64 µM [2]: > 80% | inhibition [1]: 97.5% | inhibition [4]: Active

C=CCc1ccc(O)c(-c2cc(CC=C)cc(CN(C)c3ccccc3)c2O)c1
inhibition [1]: 15.5%

C=CCc1ccc(O)c(-c2ccc(O)c(CC=C)c2)c1
inhibition [1]: 30.6%

C=CCc1ccc(O)c(-c2cc(CC=C)ccc2O)c1
inhibition [1]: 9.6%

C=CCc1cc(-c2ccc(O)c(CC=C)c2)c(O)c(C(c2cc(OC)c(OC)c(OC)c2)N2CCCC2)c1 (stereo not drawn)
inhibition [1]: 43%

C=CCc1cc(CN2CCCC2)c(O)c(-c2cc(CC=C)c(O)c(CN3CCCC3)c2)c1
inhibition [1]: 4.7%

C=CCc1cc(-c2ccc(O)c(CC=C)c2)c(O)c(C(c2ccc(OC)cc2)N2CCCCC2)c1 (stereo not drawn)
viability at 64 µM [2]: > 80% | inhibition [1]: 85%

C=CCc1cc(CN(C)c2ccccc2)c(O)c(-c2cc(CC=C)c(O)c(CN(C)c3ccccc3)c2)c1
inhibition [1]: 63%

C=CCc1cc(CN(CCCC)CCCC)c(O)c(-c2cc(CC=C)c(O)c(CN(CCCC)CCCC)c2)c1
inhibition [1]: 4.7%

C=CCc1cc(-c2cc(CC=C)c(O)c(C(c3ccc(OC)cc3)N3CCC(C)CC3)c2)c(O)c(C(c2ccc(OC)cc2)N2CCC(C)CC2)c1 (stereo not drawn)
inhibition [1]: 27.8%

C=CCc1cc(-c2ccc(O)c(CC=C)c2)c(O)c(C(c2ccc(Cl)cc2)N2CCCCC2)c1 (stereo not drawn)
inhibition [1]: 45%

C=CCc1ccc(O)c(-c2cc(CC=C)cc(CN(CC(C)C)CC(C)C)c2O)c1
inhibition [1]: 3.8%

C=CCc1cc(-c2ccc(O)c(CC=C)c2)c(O)c(C(c2cc(Cl)cc(Cl)c2)N2CCOCC2)c1 (stereo not drawn)
inhibition [3]: Active | viability at 64 µM [2]: > 80% | inhibition [1]: 92.6% | inhibition [4]: Active

C=CCc1ccc(O)c(-c2cc(CC=C)cc(CN(CCC)CCC)c2O)c1
inhibition [1]: 6.3%

C=CCc1cc(-c2ccc(O)c(CC=C)c2)c(O)c(C(c2cc(Cl)cc(Cl)c2)N2CCCCC2)c1 (stereo not drawn)
viability at 64 µM [2]: > 80% | inhibition [1]: 87.7%

C=CCc1cc(-c2ccc(O)c(CC=C)c2)c(O)c(C(c2ccc(Cl)cc2)N2CCCC2)c1 (stereo not drawn)
inhibition [1]: 40.6%

C=CCc1ccc(O)c(-c2cc(CC=C)cc(CN(CCCC)CCCC)c2O)c1
inhibition [1]: 8.2%

C=CCc1cc(CN(CC(C)C)CC(C)C)c(O)c(-c2cc(CC=C)c(O)c(CN(CC(C)C)CC(C)C)c2)c1
inhibition [1]: 6.2%

C=CCc1cc(CN(C)C(C)C)c(O)c(-c2cc(CC=C)c(O)c(CN(C)C(C)C)c2)c1
inhibition [1]: 4.1%

C=CCc1cc(CN2CCCCC2C)c(O)c(-c2cc(CC=C)c(O)c(CN3CCCCC3C)c2)c1 (stereo not drawn)
inhibition [1]: 3.33%

C=CCc1ccc(O)c(-c2cc(CC=C)cc(CN3CCC(C)CC3)c2O)c1
inhibition [1]: 6.3%

C=CCc1cc(CN(CCC)CCC)c(O)c(-c2cc(CC=C)c(O)c(CN(CCC)CCC)c2)c1
inhibition [1]: 4.8%

C[C@H]1O[C@H](O[C@H]2[C@H](O)[C@@H](O)[C@@H](O[C@H]3[C@H](O)[C@@H](O)C(O)O[C@@H]3CO)O[C@@H]2CO)[C@H](O)[C@@H](O)[C@@H]1N[C@H]1C=C(CO)[C@@H](O)[C@H](O)[C@H]1O (stereo partly drawn)
inhibition [1]: 99% | inhibition [5]: Active
